# Reference: paper PMC2359919, “Molecular targeting of retinoic acid metabolism in neuroblastoma: the role of the CYP26 inhibitor R116010 in vitro and in vivo” (British Journal of Cancer, 2007)
# How the values were obtained:
# [1] = test system: CRABP II; assay: CRABP II mRNA expression in SH-SY5Y cells, real-time PCR; format: cell-based, human; settings: ATRA 0.01 μM or 13cisRA 0.1 μM with R116010 1 μM vs retinoid alone, 24 h
# Procedure: (§1) SH-SY5Y, SH-EP (N- and S-type cells respectively derived from the parental line SK-N-SH), LAN6, IMR-32, NGP and GIMEN neuroblastoma cell lines were cultured routinely in RPMI 1640 medium containing fetal calf serum (10%) and L-glutamine (2 mM). Cells were grown at 37°C in a humidified incubator containing 5% CO2.
# (§2) 13-cis-Retinoic acid and ATRA were dissolved in DMSO and diluted in cell culture medium to obtain final concentrations of 0.1–10 μM. The final concentration of DMSO in all cases was <0.2%. All experiments were performed in dim light and tubes containing retinoids were wrapped in aluminium foil.
# (§3) RNA was reverse-transcribed using Promega's Reverse Transcription System according to the manufacturer's instructions, using random hexamer primers. Real-time PCR was performed on 20 ng cDNA using TaqMan gene expression products for human CYP26A1, CYP26B1, CRABPII, RARβ and MYCN in combination with the TaqMan Universal PCR master mix (Applied Biosystems, Warrington, UK). […] As internal standard, β-actin was measured simultaneously using the endogenous control assay provided by Applied Biosystems. […] Standard curves were generated from serial dilutions of cDNA prepared from cells treated with ATRA (1 μM) and the data were analysed using the GeneAmp Sequence Detection System software. CYP26C1 expression was analysed as described previously ([Taimi et al, 2004]).
# [2] = test system: MYCN; assay: MYCN mRNA expression in MYCN-amplified NGP cells, real-time PCR; format: cell-based, human
# Procedure: as §1, §2, §3
# [3] = test system: mouse mammary carcinoma model; design: method as in Van Heusden et al, 2002; settings: ref Van Heusden et al, 2002; cited from earlier work
# [4] = test system: RARβ; assay: RARβ mRNA expression in SH-SY5Y cells, real-time PCR; format: cell-based, human; settings: ATRA 0.01 μM or 13cisRA 0.1 μM with R116010 1 μM vs retinoid alone, 24 h
# Procedure: as §1, §2, §3
compound,measurement,setting,value
C[C@@H]([C@H](c1ccc(Nc2nc3ccccc3s2)cc1)n1ccnc1)N(C)C [R116010],"Effect on CRABP II expression, co-incubation with retinoid",[1],significant increases
same,Effect on downregulation of MYCN expression by ATRA or 13cisRA,[2]; ATRA or 13cisRA 0.1 μM with R116010 1 μM vs retinoid alone,enhanced
same,"Effect on MYCN expression, R116010 alone",[2]; R116010 alone (1 μM),small but significant increase
same,Antitumour activity as a single agent,[3],exhibits antitumour activity
same,"Effect on RARβ expression, co-incubation with retinoid",[4],significant increases
